In ChEMBL document CHEMBL1140860, “Synthesis and evaluation of dihydroartemisinin and dihydroartemisitene acetal dimers showing anticancer and antiprotozoal activity” (Bioorg Med Chem, 2009):

Columns and labels:
[1] = test system: CCRF-CEM; test: Growth inhibition of human CCRF-CEM cells after 48 hrs by sulforhodamine B assay; format: functional
[2] = test system: K562; test: Growth inhibition of human K562 cells after 48 hrs by sulforhodamine B assay; format: functional; settings: K562, 48 h
[3] = test system: A549; test: Growth inhibition of human A549 cells after 48 hrs by sulforhodamine B assay; format: functional; settings: A549, 48 h
[4] = test system: HCT-116; test: Growth inhibition of human HCT116 cells after 48 hrs by sulforhodamine B assay; format: functional; settings: HCT-116, 48 h
[5] = test system: HT-29; test: Growth inhibition of human HT-29 cells after 48 hrs by sulforhodamine B assay; format: functional; settings: HT-29, 48 h
[6] = test system: KM12; test: Growth inhibition of human KM12 cells after 48 hrs by sulforhodamine B assay; format: functional; settings: KM12, 48 h
[7] = test system: SF-268; test: Growth inhibition of human SF268 cells after 48 hrs by sulforhodamine B assay; format: functional; settings: SF-268, 48 h
[8] = test system: SF-295; test: Growth inhibition of human SF295 cells after 48 hrs by sulforhodamine B assay; format: functional; settings: SF-295, 48 h
[9] = test system: SF-539; test: Growth inhibition of human SF539 cells after 48 hrs by sulforhodamine B assay; format: functional; settings: SF-539, 48 h
[10] = test system: SNB-75; test: Growth inhibition of human SNB75 cells after 48 hrs by sulforhodamine B assay; format: functional; settings: SNB-75, 48 h
[11] = test system: M14; test: Growth inhibition of human M14 cells after 48 hrs by sulforhodamine B assay; format: functional; settings: M14, 48 h
[12] = test system: Malme-3M; test: Growth inhibition of human MALME-3M cells after 48 hrs by sulforhodamine B assay; format: functional
[13] = test system: SK-MEL-2; test: Growth inhibition of human SK-MEL-2 cells after 48 hrs by sulforhodamine B assay; format: functional; settings: SK-MEL-2, 48 h
[14] = test system: UACC-257; test: Growth inhibition of human UACC257 cells after 48 hrs by sulforhodamine B assay; format: functional; settings: UACC-257, 48 h
[15] = test system: UACC-62; test: Growth inhibition of human UACC62 cells after 48 hrs by sulforhodamine B assay; format: functional; settings: UACC-62, 48 h
[16] = test system: IGROV-1; test: Growth inhibition of human IGROV1 cells after 48 hrs by sulforhodamine B assay; format: functional; settings: IGROV-1, 48 h
[17] = test system: OVCAR-3; test: Growth inhibition of human OVCAR-3 cells after 48 hrs by sulforhodamine B assay; format: functional; settings: OVCAR-3, 48 h
[18] = test system: OVCAR-4; test: Growth inhibition of human OVCAR4 cells after 48 hrs by sulforhodamine B assay; format: functional; settings: OVCAR-4, 48 h
[19] = test system: OVCAR-5; test: Growth inhibition of human OVCAR5 cells after 48 hrs by sulforhodamine B assay; format: functional; settings: OVCAR-5, 48 h
[20] = test system: OVCAR-8; test: Growth inhibition of human OVCAR8 cells after 48 hrs by sulforhodamine B assay; format: functional; settings: OVCAR-8, 48 h
[21] = test system: SK-OV-3; test: Growth inhibition of human SKOV3 cells after 48 hrs by sulforhodamine B assay; format: functional; settings: SK-OV-3, 48 h
[22] = test system: 786-0; test: Growth inhibition of human 786-0 cells after 48 hrs by sulforhodamine B assay; format: functional; settings: 786-0, 48 h
[23] = test system: A498; test: Growth inhibition of human A498 cells after 48 hrs by sulforhodamine B assay; format: functional; settings: A498, 48 h
[24] = test system: ACHN; test: Growth inhibition of human ACHN cells after 48 hrs by sulforhodamine B assay; format: functional
[25] = test system: CAKI-1; test: Growth inhibition of human Caki1 cells after 48 hrs by sulforhodamine B assay; format: functional; settings: CAKI-1, 48 h
[26] = test system: RXF 393; test: Growth inhibition of human RXF393 cells after 48 hrs by sulforhodamine B assay; format: functional; settings: RXF 393, 48 h
[27] = test system: TK-10; test: Growth inhibition of human TK10 cells after 48 hrs by sulforhodamine B assay; format: functional; settings: TK-10, 48 h
[28] = test system: UO-31; test: Growth inhibition of human UO31 cells after 48 hrs by sulforhodamine B assay; format: functional; settings: UO-31, 48 h
[29] = test system: PC-3; test: Growth inhibition of human PC3 cells after 48 hrs by sulforhodamine B assay; format: functional; settings: PC-3, 48 h
[30] = test system: MCF7; test: Growth inhibition of human MCF7 cells after 48 hrs by sulforhodamine B assay; format: functional; settings: MCF7, 48 h
[31] = Growth inhibition of human Hs 578T cells after 48 hrs by sulforhodamine B assay; format: functional
[32] = test system: MDA-MB-435; test: Growth inhibition of human MDA-MB-435 cells after 48 hrs by sulforhodamine B assay; format: functional; settings: MDA-MB-435, 48 h
[33] = test system: BT-549; test: Growth inhibition of human BT549 cells after 48 hrs by sulforhodamine B assay; format: functional; settings: BT-549, 48 h
[34] = test system: T47D; test: Growth inhibition of human T47D cells after 48 hrs by sulforhodamine B assay; format: functional
[35] = test system: Plasmodium falciparum; test: Antimalarial activity after 72 hrs against chloroquine-sensitive Plasmodium falciparum D6 infected in erythrocytes by LDH assay; format: functional, organism-based; settings: D6, 72 h
[36] = test system: Plasmodium falciparum; test: Antimalarial activity after 72 hrs against chloroquine-resistant Plasmodium falciparum W2 infected erythrocytes by LDH assay; format: functional, organism-based; settings: W2, 72 h
[37] = test system: HOP-62; test: Growth inhibition of human HOP62 cells after 48 hrs by sulforhodamine B assay; format: functional; settings: HOP-62, 48 h
[38] = test system: HOP-92; test: Growth inhibition of human HOP92 cells after 48 hrs by sulforhodamine B assay; format: functional; settings: HOP-92, 48 h
[39] = test system: NCI-H226; test: Growth inhibition of human NCI-H226 cells after 48 hrs by sulforhodamine B assay; format: functional; settings: NCI-H226, 48 h
[40] = test system: NCI-H23; test: Growth inhibition of human NCI-H23 cells after 48 hrs by sulforhodamine B assay; format: functional; settings: NCI-H23, 48 h
[41] = test system: NCI-H322M; test: Growth inhibition of human NCI-H322M cells after 48 hrs by sulforhodamine B assay; format: functional
[42] = test system: NCI-H460; test: Growth inhibition of human NCI-H460 cells after 48 hrs by sulforhodamine B assay; format: functional; settings: NCI-H460, 48 h
[43] = test system: NCI-H522; test: Growth inhibition of human NCI-H522 cells after 48 hrs by sulforhodamine B assay; format: functional; settings: NCI-H522, 48 h
[44] = test system: COLO 205; test: Growth inhibition of human COLO205 cells after 48 hrs by sulforhodamine B assay; format: functional; settings: COLO 205, 48 h

## C[C@H]1[C@@H](OCC(CO[C@H]2O[C@@H]3O[C@@]4(C)CC[C@H]5[C@H](C)CC[C@@H]([C@H]2C)[C@@]35OO4)OC(=O)CCC(=O)O)O[C@@H]2O[C@@]3(C)CC[C@H]4[C@H](C)CC[C@@H]1[C@@]24OO3 (some centres undefined)
[1]
  GI50: 78 nM
[2]
  GI50: 230 nM
[3]
  GI50: 69 nM
[4]
  GI50: < 10 nM
[5]
  GI50: < 10 nM
[6]
  GI50: < 10 nM
[7]
  GI50: 2180 nM
[8]
  GI50: 34 nM
[9]
  GI50: 616 nM
[10]
  GI50: 22100 nM
[11]
  GI50: < 10 nM
[12]
  GI50: 4050 nM
[13]
  GI50: 5200 nM
[14]
  GI50: 46 nM
[15]
  GI50: 77 nM
[16]
  GI50: 11100 nM
[17]
  GI50: 20 nM
[18]
  GI50: 58 nM
[19]
  GI50: < 10 nM
[20]
  GI50: 15 nM
[21]
  GI50: 27200 nM
[22]
  GI50: 23 nM
[23]
  GI50: 13800 nM
[24]
  GI50: 126 nM
[25]
  GI50: 44 nM
[26]
  GI50: < 10 nM
[27]
  GI50: 211 nM
[28]
  GI50: 355 nM
[29]
  GI50: < 10 nM
[30]
  GI50: < 10 nM
[31]
  GI50: 186 nM
[32]
  GI50: 13 nM
[33]
  GI50: 724 nM
[34]
  GI50: < 10 nM
[35]
  IC50: 1400 nM
[36]
  IC50: 2100 nM
[37]
  GI50: 86 nM
[38]
  GI50: 121 nM
[39]
  GI50: 48 nM
[40]
  GI50: 10 nM
[41]
  GI50: 10200 nM
[42]
  GI50: 33 nM
[43]
  GI50: 63 nM
[44]
  GI50: < 10 nM
